From PMC5041959, “A high-content EMT screen identifies multiple receptor tyrosine kinase inhibitors with activity on TGFβ receptor” (Oncotarget, 2016)
Like-named read-outs stand apart in the source and are kept apart here.

Tested on: NMuMG cells
Assay: High-content microscopy EMT screen in TGFβ-treated NMuMG cells (FA, SF, FN, cell count)
Type: cell-based, murine
[1] = Mus musculus, NMuMG, cell count decreased by 50% compared to DMSO control, read-out: Tox IC50
[2] = NMuMG, TGFβ1 2 ng/ml plus compound, 4 days, parameter decreased by 50%
[3] = NMuMG, compared to reference 10 μM SB-431542 = 100%
[4] = NMuMG, cell count decreased by 50% compared to DMSO control, read-out: Tox IC50
[5] = NMuMG, cell count increased by 50% compared to 100% with 10 μM SB-431542

Row | Compound | IC50 (Mus musculus, 96 h, NMuMG, TGFβ1 2 ng/ml plus compound, 4 days, parameter decreased by 50%, read-out: FA IC50 (focal adhesion formation)) | IC50 (Mus musculus, 96 h, NMuMG, TGFβ1 2 ng/ml plus compound, 4 days, parameter decreased by 50%, read-out: FN IC50 (fibronectin patch formation)) | IC50 (Mus musculus, 96 h, NMuMG, TGFβ1 2 ng/ml plus compound, 4 days, parameter decreased by 50%, read-out: SF IC50 (stress fibers)) | IC50 [1] | IC50 (Mus musculus, read-out: CCI IC50 (cell count increase)) | Emax (Mus musculus, read-out: Emax (maximal effect on cell count)) | FA IC50 (focal adhesion formation) [2] | FN IC50 (fibronectin patch formation) [2] | SF IC50 (stress fibers) [2] | Emax (maximal effect on cell count) [3] | Emax (maximal effect on cell count) | IC50 [4] | CCI IC50 (cell count increase) [5] | CCI IC50 (cell count increase)
1 | O=c1[nH]c(=O)n([C@H]2C[C@H](O)[C@@H](CO)O2)cc1Br [5-Bromo-2′-deoxyuridine] | 719 nM | 321 nM | 632 nM | > 3000 nM | 300 nM | 19% |  |  |  |  |  |  |  | 
2 | CO[C@@H]1C[C@@H](C[C@H]2CC[C@H](C)[C@H]([C@@H](C)C(=O)O)O2)O[C@]2(O[C@](C)([C@H]3CC[C@@](C)([C@@H]4O[C@@H]([C@H]5O[C@@](O)(CO)[C@H](C)C[C@@H]5C)C[C@@H]4C)O3)C[C@H]2C)[C@@H]1C [Nigericin] |  |  |  | < 40 nM |  |  | n.m. | n.m. | n.m. | n.m. |  |  |  | 
3 | COc1cc2ncnc(Nc3ccc(F)c(Cl)c3)c2cc1OCCCN1CCOCC1 [Gefitinib] |  |  |  |  |  |  |  |  |  |  | n.m. |  |  | 
4 | CCN(CC)CCNC(=O)c1c(C)[nH]c(/C=C2\C(=O)Nc3ccc(F)cc32)c1C [Sunitinib malate] |  |  |  | 5100 nM |  |  | n.m. | n.m. | n.m. | n.m. |  |  |  | 
5 | Nc1ncn([C@H]2C[C@H](O)[C@@H](CO)O2)c(=O)n1 [5-Aza-2′-deoxycytidine] |  |  |  | 391 nM |  |  | n.m. | n.m. | n.m. | n.m. |  |  |  | 
6 | CC[C@@H](C(=O)[C@@H](C)[C@@H](O)[C@H](C)[C@@H]1O[C@@H]([C@@H](CC)C(=O)O)CC[C@@H]1C)[C@H]1O[C@]2(C=C[C@@H](O)[C@]3(CC[C@@](C)([C@H]4CC[C@](O)(CC)[C@H](C)O4)O3)O2)[C@H](C)C[C@@H]1C [Salinomycin] |  |  |  | 240 nM |  |  | n.m. | n.m. | n.m. |  | n.m. |  |  | 
7 | O=C(Cc1ccc(-c2ccc(OCCN3CCOCC3)cc2)cn1)NCc1ccccc1 [KX2-391] |  |  |  |  |  |  | n.m. | n.m. | n.m. | n.m. |  | 15 nM | n.m. | 
8 | C#Cc1cccc(Nc2ncnc3cc(OCCOC)c(OCCOC)cc23)c1 [Erlotinib] |  |  |  | 68.5 nM |  |  | n.m. | n.m. | n.m. |  | n.m. |  |  | 
9 | Abamectin |  |  |  |  |  |  | n.m. | n.m. | n.m. | n.m. |  | 9500 nM | n.m. | 
10 | Nc1ncn([C@@H]2O[C@H](CO)[C@@H](O)[C@H]2O)c(=O)n1 [5-Azacytidine] |  |  |  | 1260 nM |  |  | n.m. | n.m. | n.m. | n.m. |  |  |  | 
11 | N#CC(=C(/N)Sc1ccccc1N)/C(C#N)=C(/N)Sc1ccccc1N [U0126] |  |  |  |  |  |  | n.m. | n.m. | n.m. | n.m. |  | 1600 nM | n.m. | 
12 | c1ccc2c(c1)[I+]c1ccccc1-2 [Diphenyleneiodonium chloride (DPI), Diphenyleneiodonium chloride] |  |  |  | 453 nM |  |  | n.m. | n.m. | n.m. | n.m. |  |  |  | 
13 | AZD4547 |  |  |  |  |  |  | n.m. | n.m. | n.m. |  | n.m. | 3030 nM |  | n.m.
14 | CC(C)(C)n1nc(-c2ccc(Cl)cc2)c2c(N)ncnc21 [PP2] |  |  |  |  |  |  | n.m. | n.m. | n.m. | n.m. |  | 4730 nM | n.m. | 
15 | C[C@@H](Oc1cc(-c2cnn(C3CCNCC3)c2)cnc1N)c1c(Cl)ccc(F)c1Cl [Crizotinib] |  |  |  | 1720 nM |  |  | n.m. | n.m. | n.m. | n.m. |  |  |  | 
16 | Clc1ccc(Nc2nnc(Cc3ccncc3)c3ccccc23)cc1 [Vatalanib] |  |  |  | 10600 nM |  |  | n.m. | n.m. | n.m. | n.m. |  |  |  | 
17 | CCN1CCN(Cc2ccc(-c3cc4c(N[C@H](C)c5ccccc5)ncnc4[nH]3)cc2)CC1 [AEE788] |  |  |  | 44 nM |  |  | n.m. | n.m. | n.m. | n.m. |  |  |  | 
18 | COc1cc2c(Oc3ccc4[nH]c(C)cc4c3F)ncnc2cc1OCCCN1CCCC1 [Cediranib (azd2171), Cediranib] |  |  |  | 967 nM |  |  | n.m. | n.m. | n.m. | n.m. |  |  |  | 
19 | CNC(=O)c1ccccc1Sc1ccc2c(/C=C/c3ccccn3)n[nH]c2c1 [Axitinib] |  |  |  |  |  |  |  |  |  | n.m. |  |  |  | 
20 | CS(=O)(=O)CCNCc1ccc(-c2ccc3ncnc(Nc4ccc(OCc5cccc(F)c5)c(Cl)c4)c3c2)o1 [Lapatinib] |  |  |  | 134 nM |  |  | n.m. | n.m. | n.m. | n.m. |  |  |  | 
